From publication PMC6130198 (ACS chemical biology, 2018)

Tests used:
Syk = Syk (Homo sapiens, UniProt P43405); test: Z'-LYTE in vitro kinase assay; type: biochemical; conditions: data not shown
Hck = Hck (Homo sapiens, UniProt P08631); test: Z'-LYTE in vitro kinase assay; type: biochemical; conditions: data not shown
Fgr = Fgr (Homo sapiens, UniProt P09769); test: Z'-LYTE in vitro kinase assay; type: biochemical; conditions: data not shown
Fes = Fes (Homo sapiens, UniProt P07332); test: Z'-LYTE in vitro kinase assay; type: biochemical; conditions: data not shown
Chain of Fes (P07332 whole entry): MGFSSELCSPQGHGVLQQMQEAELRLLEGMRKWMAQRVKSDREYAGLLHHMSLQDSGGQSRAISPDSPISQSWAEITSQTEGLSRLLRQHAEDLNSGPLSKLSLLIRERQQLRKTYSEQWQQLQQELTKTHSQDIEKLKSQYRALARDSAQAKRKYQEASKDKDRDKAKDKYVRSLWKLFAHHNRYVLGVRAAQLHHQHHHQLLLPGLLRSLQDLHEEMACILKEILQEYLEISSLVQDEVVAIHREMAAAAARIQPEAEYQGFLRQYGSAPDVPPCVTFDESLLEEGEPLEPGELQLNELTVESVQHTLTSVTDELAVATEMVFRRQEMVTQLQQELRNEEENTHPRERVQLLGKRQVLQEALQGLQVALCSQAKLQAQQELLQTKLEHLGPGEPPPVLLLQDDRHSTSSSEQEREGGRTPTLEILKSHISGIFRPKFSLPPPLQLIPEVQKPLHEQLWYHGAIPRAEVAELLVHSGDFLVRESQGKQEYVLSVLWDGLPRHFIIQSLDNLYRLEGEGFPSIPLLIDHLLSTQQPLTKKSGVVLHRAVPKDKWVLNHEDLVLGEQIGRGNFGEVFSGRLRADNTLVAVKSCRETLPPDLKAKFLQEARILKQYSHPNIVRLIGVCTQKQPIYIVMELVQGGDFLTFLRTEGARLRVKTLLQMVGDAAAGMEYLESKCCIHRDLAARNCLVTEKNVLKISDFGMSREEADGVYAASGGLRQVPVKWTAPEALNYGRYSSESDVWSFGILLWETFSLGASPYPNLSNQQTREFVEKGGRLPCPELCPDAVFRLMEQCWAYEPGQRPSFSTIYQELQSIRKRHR

Flt3-ITD = test: Z'-LYTE in vitro kinase assay; type: biochemical; conditions: stated in words only
MV4–11 AML cells = test: MV4–11 AML cell xenograft model in NSG mice; conditions: 10 mg/kg once daily oral gavage, three weeks
[1] = biological target: other myeloid Src-family kinases; test: In vitro kinase assay; type: biochemical; conditions: data not shown

Chain of Fgr (P09769 whole entry): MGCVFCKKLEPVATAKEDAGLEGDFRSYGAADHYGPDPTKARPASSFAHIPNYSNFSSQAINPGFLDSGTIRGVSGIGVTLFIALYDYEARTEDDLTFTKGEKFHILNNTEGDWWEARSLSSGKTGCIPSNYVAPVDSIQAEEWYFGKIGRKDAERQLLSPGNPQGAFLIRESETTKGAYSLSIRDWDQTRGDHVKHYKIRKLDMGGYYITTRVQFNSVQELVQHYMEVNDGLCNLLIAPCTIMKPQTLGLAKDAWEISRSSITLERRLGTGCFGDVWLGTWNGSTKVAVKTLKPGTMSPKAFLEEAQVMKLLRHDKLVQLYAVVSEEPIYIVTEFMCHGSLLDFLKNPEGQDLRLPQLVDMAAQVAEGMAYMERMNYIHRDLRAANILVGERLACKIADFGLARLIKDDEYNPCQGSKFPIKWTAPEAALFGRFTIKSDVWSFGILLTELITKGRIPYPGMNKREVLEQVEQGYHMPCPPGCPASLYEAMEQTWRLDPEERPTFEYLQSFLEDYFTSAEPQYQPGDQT
Chain of Hck (P08631 whole entry): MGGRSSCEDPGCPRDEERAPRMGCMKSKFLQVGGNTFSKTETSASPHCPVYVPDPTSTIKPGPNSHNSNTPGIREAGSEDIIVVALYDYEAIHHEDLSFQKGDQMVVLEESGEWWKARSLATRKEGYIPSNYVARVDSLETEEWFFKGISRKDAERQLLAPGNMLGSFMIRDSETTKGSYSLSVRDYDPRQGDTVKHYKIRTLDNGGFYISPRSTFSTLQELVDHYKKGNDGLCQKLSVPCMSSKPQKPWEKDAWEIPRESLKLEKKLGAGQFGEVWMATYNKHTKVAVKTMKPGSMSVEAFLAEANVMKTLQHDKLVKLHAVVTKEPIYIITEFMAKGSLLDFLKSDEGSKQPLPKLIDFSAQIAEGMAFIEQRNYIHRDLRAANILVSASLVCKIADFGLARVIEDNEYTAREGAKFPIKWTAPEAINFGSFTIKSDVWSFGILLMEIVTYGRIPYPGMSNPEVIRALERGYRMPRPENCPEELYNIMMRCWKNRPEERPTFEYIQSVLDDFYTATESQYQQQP

Row | SMILES | inhibition of kinase in vitro (Syk) | inhibition of kinase in vitro (Hck) | inhibition of kinase in vitro (Fgr) | inhibition of kinase in vitro (Fes) | inhibition of Flt3-ITD kinase activity in vitro (Flt3-ITD) | MV4–11 cells in bone marrow thin sections (human CD45 immunohistochemistry) (MV4–11 AML cells) | MV4–11 cells in spleen thin sections (human CD45 immunohistochemistry) (MV4–11 AML cells) | effect on leukemic cells in the peripheral blood (MV4–11 AML cells; flow cytometry) | effect on spleen engraftment of MV4–11 cells (MV4–11 AML cells; flow cytometry) | reduction of bone marrow engraftment of MV4–11 cells (MV4–11 AML cells; flow cytometry) | IC50 [1]
1 | CC(C)(C)c1cc(NC(=O)Nc2ccc(-c3cn4c(n3)sc3cc(OCCN5CCOCC5)ccc34)cc2)no1 [quizartinib] | does not inhibit | does not inhibit | does not inhibit | does not inhibit | – | – | – | – | – | – | –
2 | CNC(=O)c1cc(Oc2ccc(NC(=O)Nc3ccc(Cl)c(C(F)(F)F)c3)cc2)ccn1 [sorafenib] | does not inhibit | does not inhibit | does not inhibit | does not inhibit | nM inhibitor | still stained strongly for MV4–11 cells | still stained strongly for MV4–11 cells | significant reduction | no effect | no effect | > 100 µM
3 | CCN(CC)CCNC(=O)c1c(C)[nH]c(/C=C2\C(=O)Nc3ccc(F)cc32)c1C [sunitinib] | – | does not inhibit | does not inhibit | – | – | – | – | – | – | – | –
4 | COc1cc2c(N3CCN(C(=O)Nc4ccc(OC(C)C)cc4)CC3)ncnc2cc1OCCCN1CCCCC1 [tandutinib] | does not inhibit | does not inhibit | does not inhibit | does not inhibit | – | – | – | – | – | – | –
